In experiment [1] the target is T1, low-pH folate transporter (Homo sapiens, UniProt Q96NT5).
T1 construct: host or cells: HeLa and other cells
T1 sequence (Q96NT5 1-459): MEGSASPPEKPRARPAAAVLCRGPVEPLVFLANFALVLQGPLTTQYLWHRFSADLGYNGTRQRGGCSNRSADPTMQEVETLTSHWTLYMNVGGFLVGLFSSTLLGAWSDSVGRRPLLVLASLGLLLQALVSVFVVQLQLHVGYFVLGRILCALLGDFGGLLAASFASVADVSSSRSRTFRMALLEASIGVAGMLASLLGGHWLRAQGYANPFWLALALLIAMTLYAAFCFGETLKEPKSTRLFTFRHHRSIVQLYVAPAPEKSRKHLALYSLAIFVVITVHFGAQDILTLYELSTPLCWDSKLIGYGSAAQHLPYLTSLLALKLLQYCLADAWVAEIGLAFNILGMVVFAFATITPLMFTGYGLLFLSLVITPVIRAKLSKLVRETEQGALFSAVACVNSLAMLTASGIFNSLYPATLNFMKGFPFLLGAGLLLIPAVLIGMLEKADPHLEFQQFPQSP
The following applies: pH 5.5, intestinal and other human cells; cited from earlier work.

For experiment [2], the target named is T2, G21 (PCFT) (Homo sapiens, UniProt Q96NT5).
T2 construct: expressed in transfected cells; host or cells: Xenopus laevis oocytes injected with capped G21 cRNA (pSPT64, SP6)
T2 sequence (Q96NT5 1-459): T1 sequence (Q96NT5 1-459)
The experiment can be described thus: Two-electrode voltage-clamp electrophysiology in G21 cRNA-injected Xenopus oocytes. Type of experiment: cell-based. As for the experimental part: Electrophysiological analyses in Xenopus oocytes. Defolliculated oocytes were injected with 50 nl of water (control) or G21 cRNA (50 ng), and kept at 17° C. in horse serum medium (in mM, 82.5 NaCl, 2.5 KCl, 1 MgCl2, 2.3 CaCl2, 5 HEPES, 5% horse serum, pH 7.5). Electrophysiological recordings were conducted 3-7 days after cRNA injection in buffer (in mM, 90 NaCl, 1 KCl, 1 MgCl2, 1.8 CaCl2, 5 TRIS, 5 MES) as described previously (Jansen and Akabas, 2006). Oocyte holding potential was −80 mV for Km determination. For current-voltage (I-V) relationships, from a −60 mV holding potential step changes in membrane potential were applied for 2 s in 10 mV increments between −100 and 30 mV in the absence and presence of substrate.
Background: In two-electrode clamp one electrode senses voltage and the other passes current.

Experiment [3] has as its target T2, G21 (PCFT). Briefly: Inhibition of [3H]folic acid uptake in HepG2 cells stably transfected with G21 cDNA. It counts as cell-based. To be noted: 100 μM inhibitor, pH 6.5, HepG2 cells. The procedure: Transfection. Transfection of plasmid DNA was performed in HepG2, HeLa, and Caco2 cells with Lipofectamine 2000 (Invitrogen). HepG2 cells, stably transfected with either pcDNA3.1(+) or pcDNA3.1(+)G21, were generated by G418 selection (600 μg/ml). Double selection with puromycin (5 μg/ml) and hygromycin (50 μg/ml) was adopted to obtain stably transfected Caco-2 cells with both G21-silencing shRNA vectors, or with both non-silencing negative control plasmids.
Transport of folates in HepG2, HeLa and Caco2 cells. Initial uptake of tritiated folates in HepG2, HeLa, or Caco2 cells was assessed using a protocol designed for rapid uptake determinations in cells growing in monolayer culture in liquid scintillation vials (Sharif and Goldman, 2000) except that cells were incubated at pH 7.4 and 37° C. for 20 min before initiation of uptake. Substrate uptake was normalized to protein content.

Experiment [4] concerns rat jejunum brush border membranes. To be noted: read-out: uptake Km, cited from earlier work.
The target in experiment [5] is T2, G21 (PCFT). The experiment can be described thus: Inhibition of [3H]folic acid uptake into G21 cRNA-injected Xenopus oocytes. It counts as cell-based. As for the experimental part:
Uptake studies in Xenopus oocytes. […] Radiotracer uptake was determined 3 or 4 days later. […] Uptake was halted by the addition of ice-cold MBS (pH 7.5). Oocytes were washed 10 times thereafter, and solubilized with 10% SDS for measurement of radioactivity. To collapse the pH gradient across the oocyte membrane, seven to 10 oocytes were incubated in MBS (pH 5.5) containing 0, 10, 20, 40, 60 μM FCCP for 20 min, and uptake of transport substrates assessed at pH 5.5.

Experiment [6] has as its target T2, G21 (PCFT). The experiment can be described thus: Uptake of tritiated folates in G21 cRNA-injected Xenopus oocytes. It counts as cell-based. As for the experimental part: Uptake studies in Xenopus oocytes. Defolliculated Xenopus laevis oocytes were prepared as described (Jansen and Akabas, 2006) and injected with 50 nl of water or G21 cRNA (30 ng). Radiotracer uptake was determined 3 or 4 days later. Seven to 10 oocytes were incubated in 500 μl of Modified Barth's Solution (MBS, in mM, 88 NaCl, 2.4 NaHCO3, 2.5 Na pyruvate, 1 KCl, 0.82 MgSO4, 0.41 CaCl2, 0.3 Ca(NO3)2, 15 MES or HEPES) and uptake of tritiated folate substrates assessed at room temperature. Uptake was halted by the addition of ice-cold MBS (pH 7.5). Oocytes were washed 10 times thereafter, and solubilized with 10% SDS for measurement of radioactivity. To collapse the pH gradient across the oocyte membrane, seven to 10 oocytes were incubated in MBS (pH 5.5) containing 0, 10, 20, 40, 60 μM FCCP for 20 min, and uptake of transport substrates assessed at pH 5.5.

In experiment [7] the target is T3, reduced folate carrier (SLC19A1) (Homo sapiens, UniProt P41440).
T3 sequence (P41440 1-591): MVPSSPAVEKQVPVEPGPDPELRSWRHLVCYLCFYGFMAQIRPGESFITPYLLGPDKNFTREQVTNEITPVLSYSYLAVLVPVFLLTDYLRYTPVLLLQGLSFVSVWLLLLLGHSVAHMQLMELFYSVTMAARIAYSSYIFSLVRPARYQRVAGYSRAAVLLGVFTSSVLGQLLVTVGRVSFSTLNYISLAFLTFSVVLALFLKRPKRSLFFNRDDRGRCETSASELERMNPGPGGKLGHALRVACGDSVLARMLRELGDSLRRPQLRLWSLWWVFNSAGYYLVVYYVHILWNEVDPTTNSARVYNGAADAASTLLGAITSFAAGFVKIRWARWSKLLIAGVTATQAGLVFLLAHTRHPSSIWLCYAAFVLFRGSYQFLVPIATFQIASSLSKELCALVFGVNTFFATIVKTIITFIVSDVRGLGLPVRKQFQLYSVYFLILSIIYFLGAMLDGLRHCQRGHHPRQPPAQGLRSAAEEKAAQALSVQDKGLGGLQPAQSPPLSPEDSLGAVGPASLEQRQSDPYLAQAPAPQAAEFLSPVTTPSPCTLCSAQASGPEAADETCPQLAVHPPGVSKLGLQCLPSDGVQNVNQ
The following applies: cited from earlier work.

The target of a further experiment is T4, HCP1 murine ortholog (Mus musculus, UniProt Q6PEM8, A402V).
T4 construct: host or cells: HeLa cells infected with a cDNA-containing adenovirus vector
T4 sequence (Q6PEM8 1-459 A402V): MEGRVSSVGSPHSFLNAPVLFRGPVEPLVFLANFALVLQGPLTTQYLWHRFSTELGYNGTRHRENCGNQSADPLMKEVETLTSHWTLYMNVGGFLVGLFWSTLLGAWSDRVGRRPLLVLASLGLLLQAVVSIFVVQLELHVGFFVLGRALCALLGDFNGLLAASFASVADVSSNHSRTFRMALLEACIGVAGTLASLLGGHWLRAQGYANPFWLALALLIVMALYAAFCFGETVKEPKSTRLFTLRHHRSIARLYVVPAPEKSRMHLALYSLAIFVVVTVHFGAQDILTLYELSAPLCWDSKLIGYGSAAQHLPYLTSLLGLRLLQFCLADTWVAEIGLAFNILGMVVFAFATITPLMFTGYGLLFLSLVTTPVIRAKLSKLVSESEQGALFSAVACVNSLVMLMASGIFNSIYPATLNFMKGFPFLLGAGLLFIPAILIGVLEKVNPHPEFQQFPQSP
To be noted: HeLa cells, read-out: Km for [55Fe]hemin uptake; cited from earlier work.

Entries after “also recorded” stand apart in the source; their conditions may differ. Like-named read-outs stand apart in the source and are kept apart here.

Take `Nc1nc2ncc(CNc3ccc(C(=O)N[C@@H](CCC(=O)O)C(=O)O)cc3)nc2c(=O)[nH]1` [folic acid]: the Ki (commonly the equilibrium dissociation constant of an inhibitor or competing ligand from its target) is approximately 0.6 µM in experiment [1] and approximately 200 µM in experiment [7]. Also, at G21 (PCFT) [2] (saturating concentrations, same oocyte, pH 5.5), the “current amplitude larger than (6S)5-MTHF-induced current” value is reported as 39±6%. The inhibition (as a rule, the percentage by which the read-out fell short of the control) at 100 µM worked out at 90 ± 0.02% on G21 (PCFT) [3] (read-out: inhibition of 2 μM [3H]folic acid uptake) and 92 ± 2% at G21 (PCFT) [5] (read-out: inhibition of 2 μM [3H]folic acid uptake, 100 μM inhibitor, pH 6.5, Xenopus oocytes). The Michaelis constant (Km) (commonly the substrate concentration at which the rate is half of its maximum) in experiment [4] (pH 5.5) is 0.6 µM; in experiment [4] (pH 7.4), 12.3 µM. Also, the “decrease in Vmax” value on G21 (PCFT) [6] (over the pH range of 5.5 to 6.5) is listed as 2.4 fold. The “uptake Vmax” value at G21 (PCFT) [6] (pH 5.5, same batch of oocytes) turned out to be 13 pmol/oocyte/hr; on G21 (PCFT) [6] (pH 7.5, same batch of oocytes), 5 pmol/oocyte/hr. Further, the “increase in Km” value amounted to 2.6 fold at G21 (PCFT) [6] (pH increased from 5.5 to 7.0) and 18 fold on G21 (PCFT) [6] (pH increased from 7.0 to 7.5).
Turning to hemin, the substrate-induced current result on G21 (PCFT) [2] (100 μM hemin, with 0.1% bovine serum albumin or 200 μM arginine) was “no current could be detected; also recorded: unable to detect”. The “inhibition of 2 μM [3H]folic acid uptake” value amounted to 30±5% at G21 (PCFT) [3] and 42±7% on G21 (PCFT) [5] (100 μM inhibitor, pH 6.5, Xenopus oocytes). In addition, the Km on HCP1 murine ortholog is 125 µM. Moreover, the “inhibitory effect on uptake of 2 μM [3H]folic acid” value at G21 (PCFT) [5] (20 μM nonlabeled compound, pH 5.5, 30 min) is “weak inhibitor”.

(Values after patent publication US7888025B2, “Intestinal folate transporter method” (Albert Einstein College of Medicine of Yeshiva University, priority 2007, dated 2011).)
